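In this assay, cells in 96-well plates receive the compound at five concentrations for 48 hours. Endpoints are linearly interpolated between the surrounding concentrations. TGI: total growth inhibition.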
Tests used:
Test in all cases: NCI tumour cell line growth inhibition, 48 h
HT29 colon = tested on: HT29 colon
UO-31 renal = tested on: UO-31 renal
SW-620 colon = tested on: SW-620 colon
HCT-116 colon = tested on: HCT-116 colon
OVCAR-8 ovarian = tested on: OVCAR-8 ovarian
DU-145 prostate = tested on: DU-145 prostate
HCC-2998 colon = tested on: HCC-2998 colon
SK-MEL-2 melanoma = tested on: SK-MEL-2 melanoma
HL-60(TB) leukemia = tested on: HL-60(TB) leukemia
COLO 205 colon = tested on: COLO 205 colon
HOP-62 NSCLC = tested on: HOP-62 NSCLC

SMILES	TGI (HT29 colon)	TGI (UO-31 renal)	TGI (SW-620 colon)	TGI (HCT-116 colon)	TGI (OVCAR-8 ovarian)	TGI (DU-145 prostate)	TGI (HCC-2998 colon)	TGI (SK-MEL-2 melanoma)	TGI (HL-60(TB) leukemia)	TGI (COLO 205 colon)	TGI (HOP-62 NSCLC)
Cc1ccccc1NC(=O)CC(=O)NNC(Sc1ccccc1)c1cc(N=Nc2ccc(Br)cc2)ccc1O (stereo not given)	> 10 µM	> 10 µM	> 10 µM	1.19 µM	2.12 µM	> 10 µM	> 10 µM	> 10 µM	0.907 µM	> 10 µM	> 10 µM
CC1=CCC[C@H]2[C@](C)(CC3=CC(=O)C(SCC(C)C)=CC3=O)[C@@H](C)CC[C@]12C	29.9 µM	25.5 µM	51.7 µM	24.8 µM	26.1 µM	30.9 µM	31.5 µM	31 µM		36.6 µM	31 µM
CC1(C)Oc2ccc3c(=O)cc(-c4ccccc4)oc3c2C1C(=O)O (stereo not given)	> 100 µM			> 100 µM	> 100 µM	> 100 µM	> 100 µM	> 100 µM	> 100 µM	> 100 µM	> 100 µM
COc1cc2nc(-c3cccs3)nc(Nc3cccc(Cl)c3)c2cc1OC	> 100 µM	> 100 µM	> 100 µM	> 100 µM	> 100 µM	> 100 µM		> 100 µM	> 100 µM	> 100 µM	45.3 µM
O=C1NC(N2CCOCC2)=N/C1=C\c1ccc(O)cc1	> 100 µM	> 100 µM	> 100 µM	> 100 µM	> 100 µM	> 100 µM	> 100 µM	> 100 µM	> 100 µM	> 100 µM	> 100 µM
COC1=CC(=O)N(C)C(O)C1(C#N)OC1OC(CO)C(O)C(O)C1O (stereo not given)	> 10 µM	> 100 µM	> 100 µM	> 100 µM	> 100 µM	> 100 µM	> 100 µM	> 100 µM	> 100 µM	> 100 µM	> 100 µM
CC(C)Oc1cccc(N2C(Nc3ccccc3)=Nc3ccncc3S2(=O)=O)c1	> 100 µM	> 100 µM	57.4 µM	> 100 µM	43.4 µM	> 100 µM	71.5 µM	> 100 µM	6.01 µM	28.8 µM	> 100 µM
Cc1ccc(S(=O)(=O)NC(=O)C2=C3SCCN3C(=O)N(S(=O)(=O)c3ccc(C)cc3)C2c2ccccc2)cc1 (stereo not given)	> 100 µM	> 100 µM	> 100 µM	> 100 µM	> 100 µM	> 100 µM	48 µM	> 100 µM	> 100 µM	43.6 µM	> 100 µM
Cc1nc(-c2cc3ccccc3oc2=O)cs1	> 100 µM	> 100 µM	> 100 µM	> 100 µM	> 100 µM	> 100 µM	> 100 µM	> 100 µM	> 100 µM	> 100 µM	42 µM
CC(=O)OCC1OC(n2c(C)c(C)c(C)c(C#N)c2=S)C(OC(C)=O)C(OC(C)=O)C1OC(C)=O (stereo not given)	> 100 µM	59.7 µM	> 100 µM	67.7 µM	> 100 µM	> 100 µM	> 100 µM	78.2 µM	> 100 µM	> 100 µM	49.8 µM
CC(=O)C(C)(C)CCC(C)(C)C(C)=O	> 100 µM	> 100 µM	> 100 µM	> 100 µM	> 100 µM	> 100 µM	> 100 µM	> 100 µM	> 100 µM	> 100 µM	> 100 µM
O=C1/C(=C/c2cccc3ccccc23)CCc2ccc([N+](=O)[O-])cc21		> 100 µM	> 100 µM	71 µM	> 100 µM	> 100 µM	> 100 µM		> 100 µM	> 100 µM	> 100 µM
CCOc1cc2c(cc1O)C(O)C[C@@H]1[C@@H]2CC[C@]2(C)[C@@H](O)CC[C@@H]12 (stereo not given in full)	25.1 µM	> 100 µM	> 100 µM	> 100 µM	> 50.4 µM	> 74 µM	30.4 µM	> 100 µM		60.8 µM	> 100 µM
O=C(O)c1ccccc1C1c2ccccc2Oc2ccccc21	> 100 µM	> 100 µM	> 100 µM	> 100 µM	> 100 µM	> 100 µM		86.5 µM	> 100 µM		> 100 µM
O=C(O)/C=C\C(=O)Nn1c(Cc2ccc(Cl)cc2)n[nH]c1=O	> 100 µM			> 100 µM	> 100 µM	> 100 µM	> 100 µM	> 100 µM	> 100 µM	> 100 µM	> 100 µM
Cn1c(=O)sc2cc(C(=S)N3CCCCC3)ccc21	> 100 µM		> 100 µM	> 100 µM	> 100 µM	> 100 µM		> 100 µM	42.7 µM	> 100 µM	> 100 µM
COC(=O)Cn1cnc2c(Cl)nc(Nc3ccccc3)nc21	> 100 µM		> 100 µM	> 100 µM	66.7 µM		82.8 µM	48.8 µM	> 100 µM	> 100 µM	> 100 µM
COC(NC(=O)Nc1ccccc1C)(C(F)(F)F)C(F)(F)F	> 100 µM	> 100 µM	> 100 µM	> 100 µM	> 100 µM	> 100 µM	> 100 µM		> 100 µM	> 100 µM	> 100 µM
Oc1ccc(-c2nc3ccccc3s2)cc1	> 100 µM	> 100 µM	> 100 µM	74.9 µM	> 100 µM	> 100 µM		67.3 µM	> 100 µM	> 100 µM	> 100 µM
COc1ccc2cc(C(C)C(=O)N3C(=O)OCC3(C)C)ccc2c1 (stereo not given)	> 100 µM	> 100 µM	> 100 µM	> 100 µM	> 100 µM	> 100 µM	> 100 µM		> 100 µM	> 100 µM	> 100 µM
O=C(N=Nc1ccccc1Cl)NNc1ccccc1Cl	> 100 µM	> 100 µM	> 100 µM	> 100 µM	81.7 µM	> 100 µM	94.1 µM	67.4 µM	44.9 µM		> 100 µM

SMILES	TGI (HT29 colon)	TGI (UO-31 renal)	TGI (SW-620 colon)	TGI (HCT-116 colon)	TGI (OVCAR-8 ovarian)	TGI (DU-145 prostate)	TGI (HCC-2998 colon)	TGI (SK-MEL-2 melanoma)	TGI (HL-60(TB) leukemia)	TGI (COLO 205 colon)	TGI (HOP-62 NSCLC)
Cc1c([C@H](C)[C@@H]2NC[C@@H](C)C[C@H]2O)ccc2c1C[C@H]1[C@H]2CC=C2C[C@@H](O)CC[C@@]21C	42 µM	37.5 µM	> 100 µM	30.6 µM	> 100 µM	> 100 µM	30 µM			29.4 µM	96.4 µM
O=c1[nH]c(=O)n(C2OC(CO)C(O)C2O)cc1OCCCc1ccccc1 (stereo not given)	> 100 µM		> 100 µM	> 100 µM	> 100 µM	> 100 µM	> 100 µM	> 100 µM	> 100 µM	> 100 µM	> 100 µM
CC(C)(C)OC(=O)c1ccc(NCC2=C(Br)C(=O)C=CC2=O)cc1	33.9 µM	28.6 µM	34.9 µM	35.2 µM	39.8 µM	> 94.3 µM	48 µM	> 71.1 µM		33.6 µM	> 100 µM
CCN(CC)C(=O)CCN1CC1	> 10 µM	> 10 µM		> 10 µM	> 10 µM	> 10 µM	> 10 µM	> 10 µM	> 10 µM	> 10 µM	> 10 µM
COc1cc(Oc2nc3cc(F)c(F)cc3nc2-c2ccccc2)cc(OC)c1OC	> 100 µM	> 100 µM	> 100 µM	> 100 µM	> 100 µM	> 100 µM		> 100 µM	> 100 µM	> 100 µM	> 100 µM
S=C1SC(=Nc2ccccc2)C(=Nc2ccccc2)N1c1ccc2ccccc2c1		> 100 µM		> 100 µM	> 100 µM	> 100 µM	> 100 µM	> 100 µM	> 100 µM	> 100 µM	> 100 µM
NC(=S)NC/C=C/Cl	> 100 µM	> 100 µM	> 100 µM	> 100 µM	> 100 µM	> 100 µM		> 100 µM	> 100 µM	> 100 µM	> 100 µM
COC(=O)Nc1nc2ccc(NC(=O)c3ccc(I)cc3)cc2[nH]1	> 100 µM	> 100 µM	> 100 µM	> 100 µM	> 100 µM	> 100 µM		> 100 µM	> 100 µM	> 100 µM	> 100 µM
Cc1ncc(COP(=O)(O)O)c(/C=C2\SC(=S)NC2=O)c1O	> 100 µM	> 100 µM	> 100 µM	> 100 µM	> 100 µM	> 100 µM	> 100 µM	> 100 µM		> 100 µM	> 100 µM
CC1(C)CC[C@]2(C(=O)O)CC[C@]3(C)[C@H](C(=O)C=C4[C@@]5(C)C=C(C#N)C(=O)C(C)(C)[C@@H]5CC[C@]43C)[C@@H]2C1	6.43 µM	6.29 µM	2.42 µM	4.76 µM	2.42 µM	2.39 µM		3.88 µM	11.4 µM	1.49 µM	3.28 µM
CC1(C)C=C(/C=N/Nc2ccccc2)C(C#N)=C(O)C1(C#N)C#N	> 100 µM	> 100 µM	> 100 µM	> 100 µM	> 100 µM	> 100 µM	> 100 µM		> 100 µM	> 100 µM	> 100 µM
O=C1NC(Cc2ccc(O)cc2)C(=O)NC1Cc1ccc(O)cc1 (stereo not given)	> 100 µM	> 100 µM	> 100 µM	> 100 µM	> 100 µM	> 100 µM		> 100 µM	> 100 µM	> 100 µM	> 100 µM
OC(NN=C1CCCC1)(C(F)(F)Cl)C(F)(F)Cl	> 10 µM		> 10 µM	> 10 µM	> 10 µM	> 10 µM	> 10 µM	> 10 µM	> 10 µM	> 10 µM	> 10 µM
C=C1CC(C)(c2cccc(Nc3nc4ccccc4c4occc34)c2)OC1=O (stereo not given)	16.6 µM	5.04 µM		3.1 µM	21.3 µM	19.9 µM	5.84 µM		5.38 µM	17.6 µM	25.9 µM
COc1nc(C#CC2CCCCC2)nc(OC)n1	> 100 µM	12.2 µM	15.6 µM	10.2 µM	3.44 µM	14.6 µM		13.1 µM	26 µM	53.5 µM	18.4 µM
CCOC(=O)CCC(C(=O)OCC)n1nnc2cc(Nc3c(C)[n+]([O-])c4cc(F)c(OCC)cc4[n+]3[O-])ccc21 (stereo not given)	> 100 µM	> 100 µM	> 100 µM	> 100 µM	> 100 µM	> 100 µM		> 100 µM	> 100 µM	> 100 µM	> 100 µM
Oc1ccc(Oc2cc3c(cc2Oc2ccc(O)cc2)-c2nc-3nc3[nH]c(nc4nc(nc5[nH]c(n2)c2cc(Oc6ccc(O)cc6)c(Oc6ccc(O)cc6)cc52)-c2cc(Oc5ccc(O)cc5)c(Oc5ccc(O)cc5)cc2-4)c2cc(Oc4ccc(O)cc4)c(Oc4ccc(O)cc4)cc32)cc1	> 100 µM	> 100 µM	> 100 µM	> 100 µM	> 100 µM		> 100 µM			> 100 µM	> 100 µM
CCOC1=C(c2ccccc2)N2CCCCC2O1 (stereo not given)	16.9 µM	> 79.8 µM	36.4 µM	15.2 µM	> 38.5 µM	> 86.8 µM	12.8 µM	7.99 µM		4.7 µM	17.6 µM
CC(C)(C)C1=C(Br)C(O)(C(C)(C)C)OP1(=O)c1ccccc1 (stereo not given)	> 100 µM		> 100 µM		> 100 µM	> 100 µM	> 100 µM	> 100 µM	> 100 µM	> 100 µM	> 100 µM
O=C(O)c1cccc(NC(C(=O)c2ccccc2)c2ccccc2)c1 (stereo not given)		> 100 µM	> 100 µM	> 100 µM	> 100 µM	> 100 µM	> 100 µM	> 100 µM	> 100 µM	> 100 µM	> 100 µM
O=[N+]([O-])/C(C(Cl)=C(Cl)Cl)=C(/Nc1cccc2cccnc12)n1nnc2ccccc21	40.5 µM	29.9 µM	31.3 µM	> 100 µM	32 µM		> 100 µM	33.5 µM		31.1 µM	37.5 µM

Source: PubChem BioAssay (NCI)
